According to patent US7267815B2, “Methods and reagents for the enhancement of virus transduction in the bladder epithelium” (priority 2002, dated 2007):

Columns and labels:
bladder epithelium [1] = assay: Effect of chemical agent pretreatment on adenovirus-mediated gene transfer and expression (Ad-βgal, X-gal staining); assay type: in vivo, mouse (BALB/c)
Experimental: 152 female BALB/c mice were used this study.
The route of administration of the chemical agent and virus was intravesical.
3. Based on the reagent being tested, bladder pretreatment was performed as follows:
Poloxomer 407 procedure: Washed 2 times with 100 μl each. Retained the 3rd wash for 5 min and gave one additional wash. Performed 3 times PBS wash prior to virus instillation.
Poloxomer 188 procedure: Washed 2 times with 100 μl each. Retained the 3rd wash for 5 minutes and gave one additional wash. Performed 3 times PBS wash prior to virus instillation.
Lipofectamine 2000 procedure: Added 5 μl of stock Lipofectamine (1 mg/ml) to 195 μl of PBS-10% glycerol. Mixed with an equal volume of Ad-βgal virus and incubated for 15 minutes. Administered 100 μl of the mixture intravesically and retained in the bladder for 30 minutes.
Benzyl Alcohol procedure: Washed 2 times with 100 μl each. Retained the 3rd wash for 15 minutes and then gave one additional wash. Performed 3 times PBS wash prior to virus instillation.
Performed 3 times PBS wash prior to virus instillation.
Polidocanol procedure: Washed 2 times with 100 μl each. Retained the 3rd wash for 5 min and then gave one additional wash. Performed 3 times PBS wash prior to virus instillation.
DC-Cho procedure: Washed 2 times with 100 μl each. Retained the 3rd wash for 5 min and then gave one additional wash. Performed 3 times PBS wash prior to virus instillation.
0.4% HPMC 2910 procedure: No pretreatment. An equal volume of the virus was mixed with 0.8% solution of HPMC2910 and the mixture was instilled into the bladder for 30 minutes.
100 mg/ml Poly-Lysine procedure: No pretreatment. An equal volume of the virus was mixed with 100 mg/ml solution of Poly-Lysine and the mixture was instilled into the bladder for 30 minutes.
0.4% polyvinyl alcohol (PVA) procedure: No pretreatment. An equal volume of the virus was mixed with 0.8% solution of PVA and the mixture was instilled into the bladder for 30 minutes.
n-dodecyl-β-D glucopyranoside procedure: Washed 2 times with 100 μl each. Retained the 3rd wash for 5 min and then gave one additional wash. Performed 3 times PBS wash prior to virus instillation.
0.4% PVP procedure: No pretreatment. An equal volume of the virus was mixed with 0.8% solution of PVP and the mixture was instilled into the bladder for 30 min.
0.1% cholesterol-cyclodextrin reagent procedure: No pretreatment. An equal volume of the virus was mixed with 0.2% solution of Cholesterol-Cyclodextrin and the mixture was instilled into the bladder for 30 minutes.
n-dodecyl-β-D-maltoside procedure: Washed 2 times with 100 μl each. Retained the 3rd wash for 5 min and then gave one additional wash. Performed 3 times PBS wash prior to virus instillation.
Sodium salt of dodecyl benzenesulfonic acid procedure: Washed 2 times with 100 μl each. Retained the 3rd wash for 5 min and then gave one additional wash. Performed 3 times PBS wash prior to virus instillation.
0.1% sodium dodecyl sulphate procedure: Wash 2 times with 100 μl each. Retained the 3rd wash for 5 min and then gave one additional wash. Performed 3 times PBS wash prior to virus instillation.
0.1% Tween 20 procedure: Washed 2 times with 100 μl each. Retained the 3rd wash for 5 min and then gave one additional wash. Performed 3 times PBS wash prior to virus instillation.
0.1% Triton® X-100 procedure: Washed 2 times with 100 μl each. Retained the 3rd wash for 5 min and then gave one additional wash. Perform 3 times PBS wash prior to virus instillation.
0.1% Forlan C-24 procedure: Washed 2 times with 100 μl each. Retained the 3rd wash for 5 min and then gave one additional wash. Performed 3 times PBS wash prior to virus instillation.
0.1% decyl-b-D-maltoside procedure: Washed 2 times with 100 μl each. Retained the 3rd wash for 5 min and then gave one additional wash. Performed 3 times PBS wash prior to virus instillation.
0.1% 6-cyclohexylhexyl-b-D-maltoside procedure: Washed 2 times with 100 μl each. […]

bladder = assay: Histopathology of bladders after chemical agent pretreatment (pathologists report); assay type: in vivo, mouse (BALB/c)
From the text: Bladders fixed in whole organ fixative were sectioned and stained with hematoxylin-eosin for histologic examination.

[2] = test system: SD rat bladder epithelium; assay: Adenovirus dose titration with SDS or DDM pretreatment; assay type: in vivo, Sprague Dawley Rat; details: 0.1% pretreatment
From the text: All the animals had >90% in Ad-βgal gene expression in mice bladder. Adenovirus Dose Titration with Different Chemical Agents Pretreatment on SD Rat Bladder Epithelium • Species: Female Sprague Dawley Rat (Taconic Laboratory)—2/group • Study Design: To test the virus infectivity of rat bladder epithelium with different doses of Adenovirus following the pretreatment with SDS or DDM. This study also explored relationship between bladder volume and residual of SDS or DDM for adenovirus infectivity. • Dose/Route:
Rat bladders infected with 4×10^10 vp adenovirus achieved >90% Ad-βgal gene expression levels whereas rat bladders infected with 4×10^9 vp adenovirus had Ad-βgal gene expression levels range from 30% to 50%. […] Efficacy of Dodecyl-β-D-Maltoside as a Pretreatment Agent Prior to Adenovirus Infection of Mice Bladder Urothelium • Species: Female Balb/c Mouse (Taconic Laboratory)—2/group • Study Design: To test DDM from two different suppliers as pretreatment agents to enhance the adenovirus infection of mice bladder urothelium in a large group of animals. • Dose/Route: […]

adenovirus = assay: Study #3: compatibility of adenovirus with selected enhancers (plaque assay); assay type: physicochemical
Experimental: For this study, each sample was incubated at 37° C. or 25° C. before the plaque assay started.

adenovirus (Ad-LacZ) = assay: Study #5: adenovirus stability after incubation with 0.1% SDS or 0.1% DDM (plaque assay); assay type: physicochemical; details: 0.1% solution, one hour at 25° C. or 37° C.
Experimental: In this study, adenovirus (Ad-LacZ) preparations (1.0×10^12 vp/ml) were mixed with solutions of SDS or DDM to obtain a mixture of adenovirus and each of these surfactants. […] These samples were incubated at 25° C. or 37° C. for one hour before freezing. They were sent to assay services for plaque assay analysis.

bladder epithelium [3] = assay: Transduction efficacy of exemplary pretreatment agents (summary Table 7); assay type: in vivo, mouse; details: pretreatment agent
[4] = 0.02% pre-treatment for 5 minutes
[5] = 0.05% pre-treatment for 5 minutes
[6] = 0.2% pre-treatment for 5 minutes

CCCCCCCCCCCCO[C@@H]1O[C@H](CO)[C@@H](O[C@H]2O[C@H](CO)[C@@H](O)[C@H](O)[C@H]2O)[C@H](O)[C@H]1O [n-dodecyl β-D-maltoside, n-dodecyl-β-D-maltoside]
response class (level of transduction) (bladder epithelium [1]): strongest response
transduction of the urothelium (bladder epithelium [1]; [4]): 50-80%
transduction of the urothelium (bladder epithelium [1]; [5]): > 90%
transduction of the urothelium (bladder epithelium [1]; [6]): > 90%
effect on transduction (in words) (bladder epithelium [1]; bladder pretreatment followed by Ad-LacZ): increased transduction significantly
pathologists report (bladder; [4]): no significant lesions
pathologists report (bladder; [5]): no significant lesions
pathologists report (bladder; [6]): erosions, focal ulcer, moderate submucosal edema with mucosal compromise
removal of GAG layer of bladder epithelium [2]: effective to remove GAG layer of bladder epithelium
Average pfu/mL (adenovirus; 25° C., 2 hours): 1.32E+10 pfu/mL
Ratio vp/pfu (adenovirus; 25° C., 2 hours): 16 vp/pfu
Average pfu/mL (adenovirus; 37° C., 1 hour): 1.36E+10 pfu/mL
Ratio vp/pfu (adenovirus; 37° C., 1 hour): 16 vp/pfu
compatibility with the adenovirus (in words) (adenovirus; under the experimental conditions of Table 5): compatible with the adenovirus
effect on adenovirus (in words) (adenovirus (Ad-LacZ)): no adverse effects on adenovirus
Transduction Efficacy (bladder epithelium [3]): ++++ (“++++” means >75% transduction efficacy)
